In patent US7381542B2, “Nucleic acids encoding a biogenic amine receptor” (Oregon Health & Science University, priority 2001, dated 2008):
Entries after “also recorded” stand apart in the source; their conditions may differ. Where two headings read alike, the source gives them in different places.

Tests used:
[1] = molecular target: T1, rat trace amine receptor (Rattus norvegicus, UniProt Q923Y9, L170Q/L53I/P183L/R211E/S15R); experiment: cell-based; format: cell-based; conditions: for Emax: HEK293, percent of stimulation by p-tyramine, read-out: Maximal Stimulation (% ± SEM)
T1 construct: expression vector containing the full-length rat cDNA clone described above; expressed in transfected cells
T1 sequence (Q923Y9 whole entry S15R/L53I/L170Q/P183L/R211E): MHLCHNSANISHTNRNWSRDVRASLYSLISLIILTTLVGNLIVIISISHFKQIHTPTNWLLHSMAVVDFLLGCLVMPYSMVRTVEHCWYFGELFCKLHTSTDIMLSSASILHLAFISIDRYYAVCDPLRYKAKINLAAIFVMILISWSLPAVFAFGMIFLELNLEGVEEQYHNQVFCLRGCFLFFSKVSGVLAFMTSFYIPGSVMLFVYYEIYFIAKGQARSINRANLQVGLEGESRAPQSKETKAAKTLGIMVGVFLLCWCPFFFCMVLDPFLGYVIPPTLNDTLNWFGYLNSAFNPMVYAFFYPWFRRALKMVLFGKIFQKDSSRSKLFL

[2] = test system: HEK 293 cells transfected with pcDNA3.1; experiment: MAP kinase pathway luciferase reporter in control HEK 293 cells transfected with pcDNA3.1 without receptor; format: cell-based, human; conditions: compared with cells incubated in the absence of the ligand
Description: (§1) Control cells were transfected with pcDNA3.1 without the rat trace amine receptor sequences. All cells were also co-transfected with 2 additional constructs: one (elk-gal) that encoded the yeast transcription factor gal under the transcriptional control of an Elk-responsive promoter, and another encoding firefly luciferase under the transcriptional control of a gal-responsive promoter.

[3] = molecular target: T2, human trace amine receptor (Homo sapiens, UniProt Q96RJ0, S183L/Y279S); experiment: MAP kinase pathway (Elk-gal/luciferase reporter) stimulation in HEK 293 cells transfected with H2-3 pcDNA3.1; format: cell-based; conditions: compared with cells incubated in the absence of the ligand; receptor-transfected HEK 293 cells
T2 construct: expressed in transfected cells; host or cells: HEK 293 cells, pcDNA 3.1 vector (construct H2-3 pcDNA3.1)
T2 sequence (Q96RJ0 1-339 S183L/Y279S): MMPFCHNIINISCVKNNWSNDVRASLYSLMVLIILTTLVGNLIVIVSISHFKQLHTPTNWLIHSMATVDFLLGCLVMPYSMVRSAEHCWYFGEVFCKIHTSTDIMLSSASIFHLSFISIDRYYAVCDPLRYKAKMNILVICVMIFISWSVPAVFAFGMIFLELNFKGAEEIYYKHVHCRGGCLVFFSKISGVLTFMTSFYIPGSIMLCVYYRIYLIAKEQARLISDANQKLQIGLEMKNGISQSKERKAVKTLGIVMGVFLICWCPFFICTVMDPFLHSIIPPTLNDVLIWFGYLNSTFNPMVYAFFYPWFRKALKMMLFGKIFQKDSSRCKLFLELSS
Description: as §1

[4] = Table III, cAMP, 1 hour at 37° C., 100 μM IBMX, read-out: EC50 (nM ± SEM)
[5] = untitled table after Table III, first value column, read-out: EC50 (nM), NEUROTRANSMITTERS, first column
[6] = untitled table after Table III, second value column, read-out: EC50 (nM), NEUROTRANSMITTERS, second column (no head of its own)
[7] = EC50 (nM), NEUROTRANSMITTERS, first column
[8] = EC50 (nM), NEUROTRANSMITTERS, second column (no head of its own)
[9] = untitled table after Table III, drugs, read-out: EC50 (nM), DRUGS

## CNCC(O)c1ccc(O)c(OC)c1 (stereo not drawn) [metanephrine, 3-methoxy-β-4-dihydroxy-N-methyl-β-phenethylamine]
[1]
  potency relative to precursor catecholamines dopamine, norepinephrine, epinephrine: significantly more potent; also recorded: more potently activated

## N[C@@H](CCC(=O)O)C(=O)O [glutamate]
[1]
  activation of the trace amine receptor (cAMP production), in words: not activated

## NCCc1c[nH]c2ccccc12 [Tryptamine]
[1]; [4]
  EC50: 309 ± 76 nM
[1]; [5]
  EC50: 248 nM
[1]; [6]
  EC50: 519 nM

## NCCc1ccc(O)cc1 [p-tyramine]
[1]; EC50 (nM ± SEM)
  EC50: 69 ± 9 nM
[1]; EC50 (nM), DRUGS
  EC50: 20.2 nM
[1]; [7]
  EC50: 44.9 nM
[1]; [8]
  EC50: 82 nM
[1]; Table III
  Emax: 100%

## COc1cc(CC(=O)O)ccc1O [homovanillic acid, 3-methoxy4-hydroxyphenylacetic acid]
[1]
  activation of the trace amine receptor (cAMP production), in words: no detectable activity

## CN1C[C@H](C(=O)N[C@]2(C)O[C@@]3(O)[C@@H]4CCCN4C(=O)[C@H](Cc4ccccc4)N3C2=O)C[C@@H]2c3cccc4[nH]cc(c34)C[C@H]21 [dihydroergotamine]
[1]; listed as dihydroergotsmnine
  activation of the trace amine receptor (cAMP production), in words: stimulate camp production

## CN1CC=C(c2ccccc2)CC1 [MPTP, 1-methyl 4phenyl-1,2,3,6-tetrahydropyridine]
[1]; [4]
  EC50: 99 ± 11 nM

## NCCc1cccc(O)c1 [m-tyramine]
[1]; [4]
  EC50: 5370 ± 1180 nM
[1]; [5]
  EC50: 7190 nM
[1]; [6]
  EC50: 5800 nM

## COc1cc(C(O)CN)ccc1O (stereo not drawn) [normetanephrine, 3-methoxy-β-4-dihydroxy-β-phenethylamine]
[1]
  potency relative to precursor catecholamines dopamine, norepinephrine, epinephrine: significantly more potent; also recorded: more potently activated

## CN[C@@H](C)Cc1ccccc1 [S-methamphetamine]
[1]; [9]
  EC50: 188 nM

## COc1ccc(CCN)cc1 [p-methoxy PEA]
[1]; [9]
  EC50: 346 nM

## COc1cc(CCN)ccc1O [3-methoxytyramine]
[1]
  potency relative to precursor catecholamines dopamine, norepinephrine, epinephrine: significantly more potent; also recorded: more potently activated

## C=CCN1CCc2c(cc(O)c(O)c2Cl)C(c2ccccc2)C1 (centres unmarked) [SKF82958]
[2]
  fold stimulation (luciferase), pcDNA3.1: 0.79 fold

## NCC(O)c1ccc(O)cc1 (centres unmarked) [Octopamine]
[1]; EC50 (nM ± SEM)
  EC50: 1300 ± 350 nM
[1]; [7]
  EC50: 874 nM
[1]; [8]
  EC50: 1400 nM

## CN[C@H](C)Cc1ccccc1 [R-methamphetamine]
[1]; [9]
  EC50: 236 nM

## CNCC(O)c1ccc(O)cc1 (centres unmarked) [Synephrine]
[1]; [4]
  EC50: 584 ± 100 nM

## NCCc1ccccc1 [Phenethylamine, β-phenethylamine]
[1]; [4]
  EC50: 237 ± 71 nM
[1]; [5]
  EC50: 218 nM
[1]; [6]
  EC50: 124 nM

## NCCc1c[nH]c2ccc(O)cc12 [5-hydroxytryptamine]
[2]
  fold stimulation (luciferase), pcDNA3.1: 1 fold
[3]
  fold stimulation (luciferase), H2-3 pcDNA3.1: 1.22 fold
[1]; Table III
  Emax: 47 ± 9%
[1]; [4]
  EC50: 12800 ± 4180 nM
[1]; [5]
  EC50: 1910 nM
[1]; [6]
  EC50: 8000 nM
